Common to all, as to test: Kinase panel profiling at 1 µmol/L (MSA or IMAP), percentage inhibition
Common to all, as to type: biochemical

Assay [1] has as its target panel of 255 wild-type kinases (Homo sapiens, UniProt P48729). The settings on record: kinase CK1α; 1 µmol/L single concentration; read-out: %-inhibition at 1 µmol/L, CK1α.
Assay [2] concerns the target T1, panel of 255 wild-type kinases (Homo sapiens, UniProt Q9NRM7).
T1 sequence (Q9NRM7 1-1088): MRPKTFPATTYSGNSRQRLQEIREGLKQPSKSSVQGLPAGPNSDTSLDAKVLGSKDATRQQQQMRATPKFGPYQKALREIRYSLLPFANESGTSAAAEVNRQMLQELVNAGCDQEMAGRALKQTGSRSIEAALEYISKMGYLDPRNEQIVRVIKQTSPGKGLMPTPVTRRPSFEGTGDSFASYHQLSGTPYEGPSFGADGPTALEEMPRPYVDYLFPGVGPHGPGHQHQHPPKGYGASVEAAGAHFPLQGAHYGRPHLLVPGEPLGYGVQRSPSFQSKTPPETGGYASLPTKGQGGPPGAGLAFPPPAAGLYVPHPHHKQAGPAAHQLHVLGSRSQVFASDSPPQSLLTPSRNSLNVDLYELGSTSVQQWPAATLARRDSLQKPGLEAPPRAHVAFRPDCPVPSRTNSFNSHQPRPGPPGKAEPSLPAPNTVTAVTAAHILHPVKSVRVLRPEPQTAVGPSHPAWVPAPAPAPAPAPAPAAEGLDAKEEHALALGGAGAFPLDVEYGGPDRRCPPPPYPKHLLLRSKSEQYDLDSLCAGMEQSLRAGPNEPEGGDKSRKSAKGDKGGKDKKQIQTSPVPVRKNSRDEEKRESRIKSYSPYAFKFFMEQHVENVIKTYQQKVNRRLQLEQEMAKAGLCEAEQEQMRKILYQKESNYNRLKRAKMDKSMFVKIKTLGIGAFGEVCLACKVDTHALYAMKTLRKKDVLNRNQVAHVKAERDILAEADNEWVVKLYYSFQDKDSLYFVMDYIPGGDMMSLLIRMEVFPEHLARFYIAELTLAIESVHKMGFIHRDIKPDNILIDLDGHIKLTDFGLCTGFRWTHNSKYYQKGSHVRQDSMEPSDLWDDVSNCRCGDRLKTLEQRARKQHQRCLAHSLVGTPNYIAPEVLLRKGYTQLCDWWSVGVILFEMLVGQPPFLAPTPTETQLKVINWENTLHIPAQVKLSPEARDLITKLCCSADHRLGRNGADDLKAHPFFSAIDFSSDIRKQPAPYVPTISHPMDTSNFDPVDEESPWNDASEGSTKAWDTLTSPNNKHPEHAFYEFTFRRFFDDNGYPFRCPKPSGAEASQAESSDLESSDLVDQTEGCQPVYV
The settings on record: kinase LATS2; 1 µmol/L single concentration; read-out: %-inhibition at 1 µmol/L, LATS2.

Assay [3] addresses panel of 255 wild-type kinases (Homo sapiens, UniProt P14616). The settings on record: kinase IRR; 1 µmol/L single concentration; read-out: %-inhibition at 1 µmol/L, IRR.
Assay [4] addresses panel of 255 wild-type kinases (Homo sapiens, UniProt Q9UQM7). The conditions noted are these: CaMK2α kinase assay; 1 µmol/L single concentration; read-out: %-inhibition CaMK2α.
Assay [5] deals with panel of 255 wild-type kinases (Homo sapiens, UniProt Q15759). The conditions noted are these: p38β; 1 µmol/L single concentration; read-out: %-inhibition, p38β.
Assay [6] concerns the target panel of 255 wild-type kinases (Homo sapiens, UniProt P22455). The conditions noted are these: kinase FGFR4; 1 µmol/L single concentration; read-out: %-inhibition at 1 µmol/L, FGFR4.
The target of assay [7] is T2, panel of 255 wild-type kinases (Homo sapiens, UniProt Q96KB5).
T2 sequence (Q96KB5 1-322): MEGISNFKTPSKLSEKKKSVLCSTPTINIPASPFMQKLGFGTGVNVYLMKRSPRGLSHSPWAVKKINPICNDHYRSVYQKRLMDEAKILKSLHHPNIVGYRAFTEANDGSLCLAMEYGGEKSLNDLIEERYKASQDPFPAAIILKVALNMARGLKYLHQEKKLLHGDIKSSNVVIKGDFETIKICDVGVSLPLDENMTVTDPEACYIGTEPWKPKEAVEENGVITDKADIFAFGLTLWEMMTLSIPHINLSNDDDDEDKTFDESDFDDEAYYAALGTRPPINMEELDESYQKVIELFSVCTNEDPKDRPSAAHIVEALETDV
The settings on record: kinase PBK; 1 µmol/L single concentration; read-out: %-inhibition at 1 µmol/L, PBK.

The target of assay [8] is panel of 255 wild-type kinases (Homo sapiens, UniProt P23443). The settings on record: p70S6K; 1 µmol/L single concentration; read-out: %-inhibition, p70S6K.
In assay [9] the target is panel of 255 wild-type kinases (Homo sapiens, UniProt Q05655). The settings on record: kinase PKCδ; 1 µmol/L single concentration; read-out: %-inhibition at 1 µmol/L, PKCδ.
Assay [10] has as its target panel of 255 wild-type kinases (Homo sapiens, UniProt P31749). The conditions noted are these: AKT1 kinase assay; 1 µmol/L single concentration; read-out: %-inhibition AKT1.
Assay [11] concerns the target panel of 255 wild-type kinases (Homo sapiens, UniProt Q9Y3S1). The conditions noted are these: kinase WNK2; 1 µmol/L single concentration; read-out: %-inhibition at 1 µmol/L, WNK2.
Assay [12] concerns the target panel of 255 wild-type kinases (Homo sapiens, UniProt P21802). The settings on record: kinase FGFR2; 1 µmol/L single concentration; read-out: %-inhibition at 1 µmol/L, FGFR2.
In assay [13] the target is panel of 255 wild-type kinases (Homo sapiens, UniProt P43405). The settings on record: kinase SYK; 1 µmol/L single concentration; read-out: %-inhibition at 1 µmol/L, SYK.
Assay [14] concerns the target panel of 255 wild-type kinases (Homo sapiens, UniProt Q8IY84). The settings on record: NIM1K; 1 µmol/L single concentration; read-out: %-inhibition, NIM1K.
Assay [15] has as its target panel of 255 wild-type kinases (Homo sapiens, UniProt Q15303). The conditions noted are these: read-out: %-inhibition at 1 µmol/L, HER4.
The mark [16] stands for this setting: kinase HER4, 1 µmol/L single concentration.

Consider six compounds from paper PMC9516332 (Frontiers in Oncology, 2022).

Read-outs that look alike come from different tables or passages of the source.

As for `CO[C@]1(C(=O)N[C@@H](C)c2ccc(-n3cc(F)cn3)nc2)CC[C@H](c2nc(C)cc(Nc3cc(C)[nH]n3)n2)CC1` [pralsetinib], the inhibition at 1 µM in assay [1] is -2.22%; in [2], 7.44%; in assay [3], 10%; in [4], -1.59%; in assay [5], -3.42%; in [6], 85%. The inhibition at 1 µM is -1.86% in assay [7]; 29% in assay [8]; -3% in assay [9]; -12% in assay [10]; -1% in [11]; 98% in assay [12]. Further, the inhibition at 1 µM was found to be 85% in [13], 0.843% in assay [14] and 53% in assay [15] (setting [16]).
Consider `CCn1c(=O)c(-c2cc(NC(=O)Nc3ccccc3)c(F)cc2Br)cc2cnc(NC)cc21` [ripretinib], for which the inhibition at 1 µM in assay [1] was 11%; in [2], -0.411%; in assay [3] it was 4.5%; in [4] it was -5.68%; in assay [5], 88%; in assay [6], 11%. In addition, the inhibition at 1 µM in assay [7] was -4%; in [8], 64%; in assay [9] it was 54%; in [10], -6%; in [11] it was -1.64%; in [12] it was 72%. Also, the results for the inhibition at 1 µM in assay [13], in assay [14] and in assay [15] (setting [16]) were -8%, 0.056% and 36%, respectively.
`COc1ccc(CN2C3CC2CN(c2ccc(-c4cc(OCC(C)(C)O)cn5ncc(C#N)c45)cn2)C3)cn1` [selpercatinib]: the inhibition at 1 µM in assay [1] was 25%; in [2], -5.4%; in [3], 3%; in assay [4] it was 1.43%; in assay [5] it was -1.85%; in assay [6] it was 84%. Further, the inhibition at 1 µM in [7] was -7%; in assay [8], 42%; in [9], -2%; in [10], -10%; in [11], -2.37%; in assay [12], 100%. Further, the inhibition at 1 µM in assay [13] is 7.5%; in assay [14] it was -2%; in assay [15] (setting [16]), 7.42%.
With `Cn1cnc2c(F)c(Nc3ccc(Br)cc3Cl)c(C(=O)NOCCO)cc21` [selumetinib], the inhibition at 1 µM in assay [1] is -3.42%; in assay [2] it was -3.38%; in assay [3], 2.15%; in assay [4], -1.34%; in [5], -1.71%; in assay [6] it was 6.37%. In addition, the inhibition at 1 µM is -3% in assay [7]; 8% in assay [8]; -4.35% in assay [9]; -11% in [10]; -4% in assay [11]; 1.1% in [12]. Besides, the values for the inhibition at 1 µM in assay [13], in assay [14] and in assay [15] (setting [16]) were -12%, -0.385% and 33%, respectively.
With `Cc1cc(Nc2ncnc3ccc(NC4=NC(C)(C)CO4)cc23)ccc1Oc1ccn2ncnc2c1` [tucatinib], the inhibition at 1 µM in assay [1] is 0.588%; in assay [2] it was 0.168%; in assay [3], 3%; in assay [4], -3%; in [5] it was -3.42%; in [6], 4%. For the same compound, the inhibition at 1 µM is 1.21% in assay [7]; 15% in [8]; 2.67% in [9]; -9% in assay [10]; 0.536% in assay [11]; 6% in assay [12]. The inhibition at 1 µM was -0.549% in assay [13], 1.49% in assay [14] and 94% in [15] (setting [16]).
Regarding `C=CC(=O)N1CCC([C@@H]2CCNc3c(C(N)=O)c(-c4ccc(Oc5ccccc5)cc4)nn32)CC1` [zanubrutinib], the inhibition at 1 µM in assay [1] is -0.607%; in [2] it was -0.0723%; in [3], 2.69%; in [4] it was 2%; in assay [5], 4.54%; in [6], 7.51%. Also, the inhibition at 1 µM was -4% in assay [7]; -3.21% in assay [8]; -6% in [9]; -13% in assay [10]; 2% in assay [11]; 2.54% in assay [12]. In addition, the inhibition at 1 µM in assay [13] was -6.37%; in assay [14] it was -1.66%; in assay [15] it was 99%.
